Measurements: patent US12478624B2, “Heterocyclic derivatives, pharmaceutical compositions and their use in the treatment or amelioration of cancer” (Tolremo Therapeutics AG, priority 2019, dated 2025)

Test system: A375 cells
Test: Assay 1: A375 cells treated with S1152, S1008 and compound, immunofluorescence (sc-365823) signal
Format: cell-based
Details: 1 μM S1152 + 0.5 μM S1008, one day
Experimental: One thousand four hundred A375 cells were seeded in each well of a 384 well microplate. One day later they were treated with 1 μM S1152 (Selleckchem) in dimethyl sulfoxide, 0.5 μM S1008 (Selleckchem) and dose ranges of invention compounds for one day in Dulbecco's Modified Eagle's Medium supplemented with 10% fetal calf serum and 2 mM (2S)-2-amino-4-carbamoylbutanoic acid. Wells were incubated with 4% polyoxymethylene (Sigma Aldrich 158127) at ambient temperature. […] After one minute phosphate-buffered saline was replaced with 0.2% polyethylene glycol octylphenyl ether in phosphate-buffered saline. […] 1% aminoethanoic acid in phosphate-buffered saline was added for ten minutes at ambient temperature. […] After one hour at ambient temperature in the dark, signal in wells was measured with a Acumen Cellista. 3,8-Diamino-5-[3-(diethylmethylammonio)propyl]-6-phenylphenanthridinium diiodide-positive objects were defined in FL3 (565-600 nm) with a perimeter between 50-800 μm and a total intensity of 10000-1000000 FLU. Signal in FL2 (500-530 nm) was measured in defined objects. A normalized ratio of total In FL2 over total In FL3 staining was log transformed. A non-linear regression (variable slope, 4 parameters) was used to calculate EC50 values using GraphPad Prism (Version 7.0d).
In an alternative procedure, assay 1 has been affected by changing the counteratain. […] Cells were incubated with 0.5 μg/ml 2-(4-Amidinophenyl)-6-indolecarbamidine dihydrochloride, 4′,6-Diamidino-2-phenylindole dihydrochloride (Sigma D9542) in phosphate-buffered saline for at least 30 minutes at ambient temperature in the dark. A Celigo Imager (Nexcelom) was used to acquire images in the blue and green channel. The blue channel was used as a mask to define the area for the green signal. The average integrated intensity of the green signal was normalized and a non-linear regression (variable slope, 4 parameter) was used to calculate the EC50 values using GraphPad Prism (Version 8.4)

EC50 (Homo sapiens, A-375, 24 h) [µM] | EC50 [µM] | SMILES
 | < 0.2 | COc1cc(F)cc(Nc2cc(-c3cccnc3)nc([C@@H]3CC[C@H](C)N(C(C)=O)C3)n2)c1 [Compound 00031, 1-((2S,5R)-5-(4-((3-fluoro-5-methoxyphenyl)amino)-6-(pyridin-3-yl)pyrimidin-2-yl)-2-methylpiperidin-1-yl)ethan-1-one]
> 10 |  | CC[C@@H]1CC[C@@H](c2nc(Nc3cccc(F)c3)cc(-c3cccnc3)n2)CN1C(C)=O (racemic) [Compound 00021, (+/−)-trans-1-(2-ethyl-5-(4-((3-fluorophenyl)amino)-6-(pyridin-3-yl)pyrimidin-2-yl)piperidin-1-yl)ethan-1-one]
 | > 10 | CC(=O)N1C[C@@H](c2nc(Nc3ccncc3)cc(-c3cccnc3)n2)CC[C@H]1C [Compound 00007]
 | 0.2 to 1 | CC(=O)N1C[C@H](c2nc(Nc3ccc4nc[nH]c4c3)cc(-c3cccnc3)n2)CC[C@@H]1C [Compound 00032, 1-((2S,5R)-5-(4-((1H-benzo[d]imidazol-6-yl)amino)-6-(pyridin-3-yl)pyrimidin-2-yl)-2-methylpiperidin-1-yl)ethan-1-one]
 | 0.2 to 1 | CC(=O)N1C[C@H](c2nc(Nc3ccc4nncnc4c3)cc(-c3cccnc3)n2)CC[C@@H]1C [Compound 00122, 1-((2S,5R)-5-(4-(benzo[e][1,2,4]triazin-6-ylamino)-6-(pyridin-3-yl)pyrimidin-2-yl)-2-methylpiperidin-1-yl)ethan-1-one]
 | < 0.2 | CC(=O)N1C[C@H](c2nc(Nc3ccc4c(=O)[nH]ccc4c3)cc(-c3cccnc3)n2)CC[C@@H]1C [Compound 00035, 6-((2-((3R,6S)-1-acetyl-6-methylpiperidin-3-yl)-6-(pyridin-3-yl)pyrimidin-4-yl)amino)isoquinolin-1(2H)-one]
 | 0.2 to 1 | CC(=O)N1C[C@H](c2nc(Nc3ccc4c(c3)NC(=O)C4)cc(-c3cccnc3)n2)CC[C@@H]1C [Compound 00076, 6-((2-((3R,6S)-1-acetyl-6-methylpiperidin-3-yl)-6-(pyridin-3-yl)pyrimidin-4-yl)amino)indolin-2-one]
 | 0.2 to 1 | CC(=O)N1C[C@H](c2nc(Nc3ccc4cn[nH]c4c3)cc(-c3cccnc3)n2)CC[C@@H]1C [Compound 00029, 1-((2S,5R)-5-(4-((1H-indazol-6-yl)amino)-6-(pyridin-3-yl)pyrimidin-2-yl)-2-methylpiperidin-1-yl)ethan-1-one]
 | 1 to 10 | CC(=O)Nc1ccc(Nc2cc(-c3cccnc3)nc([C@@H]3CC[C@H](C)N(C(C)=O)C3)n2)cc1O [Compound 00036, N-(4-((2-((3R,6S)-1-acetyl-6-methylpiperidin-3-yl)-6-(pyridin-3-yl)pyrimidin-4-yl)amino)-2-hydroxyphenyl)acetamide]
 | < 0.2 | CC(=O)N1C[C@H](c2nc(Nc3ccc4ncncc4c3)cc(-c3cccnc3)n2)CC[C@@H]1C [Compound 00121, 1-((2S,5R)-2-methyl-5-(4-(pyridin-3-yl)-6-(quinazolin-6-ylamino)pyrimidin-2-yl)piperidin-1-yl)ethan-1-one]
 | 0.2 to 1 | CC(=O)N1C[C@H](c2nc(Nc3ccc4[nH]nnc4c3)cc(-c3cccnc3)n2)CC[C@@H]1C [Compound 00033, 1-((2S,5R)-5-(4-((1H-benzo[d][1,2,3]triazol-5-yl)amino)-6-(pyridin-3-yl)pyrimidin-2-yl)-2-methylpiperidin-1-yl)ethan-1-one]

Second part, the molecule before the results:

SMILES | EC50 (Homo sapiens, A-375, 24 h) [µM] | EC50 [µM]
CC[C@H]1CC[C@@H](c2nc(Nc3cccc(C)c3)cc(-c3cccnc3)n2)CN1C(C)=O (racemic) [Compound 00018, (+/−)-cis-1-(2-ethyl-5-(4-(pyridin-3-yl)-6-(m-tolylamino)pyrimidin-2-yl)piperidin-1-yl)ethan-1-one] | 1 to 10 | 
COc1cncc(-c2cc(Nc3cccc(Cl)c3)nc([C@@H]3CC[C@@H](C)N(C(C)=O)C3)n2)c1 (racemic) [Compound 00017, (+/−)-trans-1-(5-(4-((3-chlorophenyl)amino)-6-(5-methoxypyridin-3-yl)pyrimidin-2-yl)-2-methylpiperidin-1-yl)ethan-1-one] | 1 to 10 | 
CC(=O)N1C[C@H](c2nc(Nc3cncc(C)c3)cc(-c3cncc4[nH]ccc34)n2)CC[C@@H]1C (racemic) [Compound 00099, (+/−)-cis-1-(2-methyl-5-(4-((5-methylpyridin-3-yl)amino)-6-(1H-pyrrolo[2,3-c]pyridin-4-yl)pyrimidin-2-yl)piperidin-1-yl)ethan-1-one] |  | 0.2 to 1
CC(=O)N1C[C@H](c2nc(Nc3cccc(C)c3)cc(-c3cccnc3)n2)CC[C@@H]1C(F)(F)F (racemic) [Compound 00022, (+/−)-c/s-1-(5-(4-(pyridin-3-yl)-6-(m-tolylamino)pyrimidin-2-yl)-2-(trifluoromethyl)piperidin-1-yl)ethan-1-one] |  | 0.2 to 1
CC(=O)N1C[C@H](c2nc(Nc3cncc(C)c3)cc(-c3cncc(C)c3)n2)CC[C@@H]1C (racemic) [Compound 00098, (+/−)-c/s-1-(2-methyl-5-(4-(5-methylpyridin-3-yl)-6-((5-methylpyridin-3-yl)amino)pyrimidin-2-yl)piperidin-1-yl)ethan-1-one] |  | < 0.2
CC(=O)N1C[C@H](c2nc(Nc3ccnc(C)c3)cc(-c3cncc(N4CCCC4=O)c3)n2)CC[C@@H]1C [Compound 00108, 1-(5-(2-((3R,6S)-1-acetyl-6-methylpiperidin-3-yl)-6-((2-methylpyridin-4-yl)amino)pyrimidin-4-yl)pyridin-3-yl)pyrrolidin-2-one] |  | 0.2 to 1
CC(=O)N1C[C@H](c2nc(Nc3ccnc(C)c3)cc(-c3cncc(C(=O)N(C)C)c3)n2)CC[C@@H]1C [Compound 00109, 5-(2-((3R,6S)-1-acetyl-6-methylpiperidin-3-yl)-6-((2-methylpyridin-4-yl)amino)pyrimidin-4-yl)-N,N-dimethylnicotinamide] |  | > 10
COc1cncc(-c2cc(Nc3cccc(Cl)c3)nc([C@@H]3CC[C@H](C)N(C(C)=O)C3)n2)c1 (racemic) [Compound 00016, (+/−)-cis-1-(5-(4-((3-chlorophenyl)amino)-6-(5-methoxypyridin-3-yl)pyrimidin-2-yl)-2-methylpiperidin-1-yl)ethan-1-one] |  | < 0.2
CC(=O)N1C[C@H](c2nc(Nc3cccc(F)c3)cc(-c3cccnc3)n2)CC[C@@H]1C(F)(F)F (racemic) [Compound 00023, (+/−)-c/s-1-(5-(4-((3-fluorophenyl)amino)-6-(pyridin-3-yl)pyrimidin-2-yl)-2-(trifluoromethyl)piperidin-1-yl)ethan-1-one] |  | 0.2 to 1
[2H]C([2H])([2H])[C@@H]1CC[C@H](c2nc(Nc3cncc(C)c3)cc(-c3cnccn3)n2)CN1C(C)=O [Compound 00011] |  | > 10
CC(=O)N1C[C@H](c2nc(Nc3cncc(N4CCCC4=O)c3)cc(-c3cccnc3)n2)CC[C@@H]1C [Compound 00135, 1-(5-((2-((3R,6S)-1-acetyl-6-methylpiperidin-3-yl)-6-(pyridin-3-yl)pyrimidin-4-yl)amino)pyridin-3-yl)pyrrolidin-2-one] |  | 1 to 10
COc1cncc(-c2cc(Nc3cncc(C)c3)nc([C@H]3CC[C@H](C)N(C(C)=O)C3)n2)c1 [Compound 00133, 1-((2S,5S)-5-(4-(5-methoxypyridin-3-yl)-6-((5-methylpyridin-3-yl)amino)pyrimidin-2-yl)-2-methylpiperidin-1-yl)ethan-1-one] | > 10 | 
CC(=O)N1C[C@H](c2nc(Nc3cccc(F)c3)cc(-c3cccnc3)n2)CC[C@H]1C(F)(F)F (racemic) [Compound 00024, (+/−)-trans-1-(5-(4-((3-fluorophenyl)amino)-6-(pyridin-3-yl)pyrimidin-2-yl)-2-(trifluoromethyl)piperidin-1-yl)ethan-1-one] | > 10 | 
CC(=O)N1C[C@H](c2nc(Nc3ccnc(C)c3)cc(-c3cncc(C4COC4)c3)n2)CC[C@@H]1C [Compound 00127, 1-((2S,5R)-2-methyl-5-(4-((2-methylpyridin-4-yl)amino)-6-(5-(oxetan-3-yl)pyridin-3-yl)pyrimidin-2-yl)piperidin-1-yl)ethan-1-one] |  | < 0.2
CC(=O)N1C[C@H](c2nc(Nc3cccc(F)c3)cc(-c3cccnc3)n2)CC[C@H]1C(F)F (racemic) [Compound 00026, (+/−)-frans-1-(2-(difluoromethyl)-5-(4-((3-fluorophenyl)amino)-6-(pyridin-3-yl)pyrimidin-2-yl)piperidin-1-yl)ethan-1-one] | > 10 | 
CC(=O)N1C[C@H](c2nc(Nc3cncc(C(F)F)c3)cc(-c3cnccn3)n2)CC[C@@H]1C [Compound 00129, 1-((2S,5R)-5-(4-((5-(difluoromethyl)pyridin-3-yl)amino)-6-(pyrazin-2-yl)pyrimidin-2-yl)-2-methylpiperidin-1-yl)ethan-1-one] |  | < 0.2
CC(=O)N1C[C@H](c2nc(Nc3ccnc(F)c3)cc(-c3cncc(N4CCCC4=O)c3)n2)CC[C@@H]1C [Compound 00106, 1-(5-(2-((3R,6S)-1-acetyl-6-methylpiperidin-3-yl)-6-((2-fluoropyridin-4-yl)amino)pyrimidin-4-yl)pyridin-3-yl)pyrrolidin-2-one] |  | < 0.2
